Source: US20120003191A1, “VALPROIC ACID, DERIVATIVES, ANALOGUES, AND COMPOSITIONS INCLUDING SAME AND METHODS FOR THEIR THERAPEUTIC USE” (priority 2009, published 2012)

Test system: dyw mouse model of MDC1A
Assay: VPA in the dyw mouse model of MDC1A (predicted)
Format: in vivo
Protocol: In particular, the effect of VPA on MDC1A is determined by using the dyw mouse model of MDC1A. VPA (60 mg/kg or 240 mg/kg body weight) is administered i.p. daily to male dyw mice (n=11 each, as determined by Power analysis with α=0.05, p=0.8 and r=0.5) for 6 weeks starting at 10 days of age. Daily body weights are noted and mice observed for signs of overt toxicity. Control mice of each genotype will be injected with the same volumes of sterile saline. At the end of the course of injections, mice are sacrificed and the gastrocnemius-soleus, quadriceps, heart and diaphragm harvested. Tissues are sectioned on a Leica CM 1850 cryostat to 10 μm. Hematoxylin-eosin staining is performed on the sections. The effect of VPA on the Akt pathway, fibrosis, apoptosis and/or fiber-diameter variation in skeletal muscle of dyw mice is determined by methods known to those of ordinary skill in the art including, but not limited to those described below.
As muscle fiber-diameter variation is a pathological feature in MDC1A muscle, it can be determined if treatment with VPA restores this parameter in dyw mice. Using image analysis software, muscle-fiber diameters are calculated in at least 500 fibers per mouse in both the VPA and control treated groups. […] Data is analyzed by ANOVA and a p-value of <0.05 is considered statistically significant.
To quantify fibrosis in muscles, western blotting is performed on muscle extracts using an antibody against collagen VI (Santa Cruz Biotechnology, Santa Cruz, Calif.). Protein extracts are made from muscles as reported (Gurpur et al., 2009) and the Bradford assay is done to determine protein concentrations. Western blotting is carried out using 1:1000 dilution of the anti-collagen VI antibody. The blots are re-probed with an antibody against tubulin to ensure equal protein loading. Band intensities are quantified using the LiCor Odyssey software (LiCor Biosciences, Lincoln, Neb.). Ratio of the collagen VI to tubulin band-intensities is calculated. […] Data is analyzed by ANOVA and a p-value of <0.05 is considered statistically significant.
Muscle fiber loss due to apoptosis is a significant problem in MDC1A patients. To determine if VPA treatment decreases apoptosis in dyw muscle, after the course of injections, mice are sacrificed and the gastrocnemius-soleus, quadriceps and diaphragm harvested. Tissues are sectioned on a Leica CM 1850 cryostat to 10 μm. The DeadEnd fluorometric TUNEL assay kit (Promega, Madison, Wis.) is used as per the manufacturer's instructions to label apoptotic nuclei in the cryosections. The total number of nuclei (DAPI labeled, fluorescing blue) and the apoptotic nuclei (fluorescing green) are counted in 15 random fields for each muscle, for each mouse. The proportion of apoptotic nuclei is quantified and compared between the VPA injected and control mice. […] Data is analyzed by ANOVA and a p-value of <0.05 is considered statistically significant.
VPA is administered to male dyw mice (n=11 each) daily for 6 weeks with 80 mg/kg or 240 mg/kg body weight of VPA starting at 10 days of age. Daily body weights are noted and mice are observed for signs of overt toxicity. Control mice are injected with the same volumes of sterile saline.
After the course of injections, mice are sacrificed and the gastrocnemius-soleus, quadriceps and diaphragm harvested. Protein extracts are made from the muscles as reported (Gurpur et al., 2009). […]

SMILES: CCCC(CCC)C(=O)O [VPA, valproic acid]
- Akt pathway in skeletal muscle of dyw mice: activates the Akt pathway
- apoptosis in skeletal muscle of dyw mice: inhibiting apoptosis
- fiber-diameter variation in skeletal muscle of dyw mice: decreasing fiber-diameter variation
- fibrosis in skeletal muscle of dyw mice: decreasing fibrosis
- pathology in dyw mice: ameliorate pathology
